Results on three molecules are retold here after publication PMC11876601 (Molecular Systems Biology, 2025).

Values joined by “and” are separate entries in the source; they are usually repeats but may differ in a detail not shown here. Equal values may be shown once. Read-outs that look alike come from different tables or passages of the source.

The target of one experiment is SLK. Also on record: method as in Reinecke et al. (2023). The following applies: 5 cell line mix lysate, Kinobeads ε, ref Reinecke et al. (2023), cited from earlier work.
For the next experiment, the system named is MAP3K6. Also on record: method as in Reinecke et al. (2023). To be noted: MAP3K6, 5 cell line mix lysate, Kinobeads ε, ref Reinecke et al. (2023), cited from earlier work.
For another experiment, the target named is BTK. Also on record: method as in Reinecke et al. (2023). The following applies: 5 cell line mix lysate, Kinobeads ε, ref Reinecke et al. (2023), cited from earlier work.
The subject of another experiment is PRKAA1. On the set-up: method as in Reinecke et al. (2023). To be noted: PRKAA1, 5 cell line mix lysate, Kinobeads ε, ref Reinecke et al. (2023), cited from earlier work.
The target of the next experiment is INSR. On the set-up: method as in Reinecke et al. (2023). To be noted: 5 cell line mix lysate, Kinobeads ε, ref Reinecke et al. (2023), cited from earlier work.
The subject of the next experiment is PDO UME053. In words: PDO viability assay (CellTiter-Glo, 72 h).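 For Curve top: fraction of plate-wise median vehicle signal.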 Format: cell-based, human. On the set-up: Curve top / Curve bottom: scale not given here. On the procedure:
Primary patient-derived PDAC organoid (PDO) experiments were performed in the laboratories of Prof. Maximilian Reichert (University Hospital of the TU Munich, Germany, PDO set 1: B250, B535, B678) and Prof. Jens T. Siveke (University Hospital Essen, Germany; PDO set 2: UME008, UME012, UME051, UME053, UME060, UME061). PDOs were generated from surgical resection, EUS-guided fine needle biopsy (EUS-FNB), or ascites (Appendix Table S2). Surgical specimens were first minced with a sterile scalpel and subsequently washed with Anti-Anti solution and washing medium (PDO set 1), or vice versa (PDO set 2; Appendix Table S3). Biopsy samples were directly washed with an Anti-Anti solution and washing medium. Samples were digested using 1 ml of digestion medium at 37 °C while shaking, and the enzymatic reaction was stopped by adding 15 ml of washing medium (Appendix Table S3). If samples of PDO set 1 were blood-stained, tissue pellets were first incubated with ACK lysing buffer/red blood cells lysis buffer (Thermo Fisher Scientific) for 5 min and then digested using TrypLE (Thermo Fisher Scientific). The reversed procedure was applied for blood-stained samples of PDO set 2. For PDO generation from ascites, the material was first spun down at 500 × g for 5 min. Then, washing medium was added and the suspension was centrifuged at 300 × g for 5 min. If the pellet was blood-stained, ACK lysis buffer was added and incubated at room temperature.
For viability assays in PDOs, confluent organoids were removed from medium, and Matrigel was dissolved by adding 200 μl (PDO set 1) or 2 ml (PDO set 2) of Cell Recovery Solution (Corning), and additionally 500 μl of DPBS (PDO set 1 only). Samples were transferred into a falcon and incubated on ice for 30 min, followed by centrifugation at 300 × g at 4 °C for 5 min (after adding 10 ml washing medium for PDO set 2). Subsequently, TrypLE Express Enzyme (Thermo Fisher) was added to cell pellets and incubated for 2 × 5 min at 37 °C. The enzymatic reaction was quenched by DPBS (PDO set 1) or washing medium (PDO set 2), and samples were washed by centrifugation at 300 × g at 4 °C for 5 min. Five hundred cells/well were seeded in 384-well plates (Corning) in 50 μl of PDO medium containing 10% Matrigel. To allow PDO generation, cells were incubated for 4 days at 37 °C and 5% CO2. […] Experiments were pipetted manually (PDO set 1) or automatically using a TECAN D300e Digital Dispenser (HP; PDO set 2). Treatments were performed in eight replicates, except for PDO PPES045 (quadruplicates). After 72 h, cell viability was measured using the CellTiter-Glo Luminescent Cell Viability Assay (Promega) diluted 1:5 in the final volume of the well. After 20 min of incubation at room temperature under gentle shaking, the acquisition was performed in the microplate reader VantaSTAR (BMG Labtech) using 3000 gain for the amplification measurement of a detected signal (PDO set 1) or the Spark Multimode microplate reader (TECAN) at 800 ms integration time (PDO set 2).
A general note: ATP-based viability assays read luminescence as a measure of living cells.

A further experiment concerns MAP4K5. On the set-up: method as in Klaeger et al. (2017). The following applies: MAP4K5, 4 cell line mix lysate, Kinobeads y, ref Klaeger et al. (2017); cited from earlier work.
A further experiment has as its system IKBKE. Also on record: method as in Klaeger et al. (2017). To be noted: lysate 4 cell line mix (Colo205, K-562, MV-4-11, and SK-N-BE(2)), Kinobeads y, ref Klaeger et al. (2017); cited from earlier work.
The next experiment has as its system STK3. On the set-up: method as in Klaeger et al. (2017). The following applies: STK3, 4 cell line mix lysate, Kinobeads y, ref Klaeger et al. (2017); cited from earlier work.
[1] abbreviates: PDO UME053, GEM + Elimusertib (ATRi) dose1, per replicate.
Setting [2] is: PDO UME053, GEM + Elimusertib (ATRi) dose2, per replicate.
[3] abbreviates: PDO UME053, GEM + Elimusertib (ATRi) dose3, per replicate.
The mark [4] stands for this setting: PDO UME053, GEM alone, per replicate.
[5] abbreviates: PDO UME053, experiment GEM (GEM alone), curve fit.

In the case of `COc1cc(N2CCC(N3CCN(C)CC3)CC2)ccc1Nc1ncc(Cl)c(Nc2ccccc2P(C)(C)=O)n1` [Brigatinib], the Kd at SLK (read-out: KDapp) was 466 nM; on MAP3K6 (read-out: KDapp), 697 nM; on BTK (read-out: KDapp), 1480 nM; on PRKAA1 (read-out: KDapp) it was 709 nM; at INSR (read-out: KDapp), 1320 nM. For the same molecule, the EC50 in the experiment with SLK was 523 nM; in the experiment with MAP3K6, 844 nM; with BTK, 3780 nM; in the experiment with PRKAA1 it was 1110 nM; in the experiment on INSR, 1750 nM. The pKDapp is 6.33 at SLK; 6.16 on MAP3K6; 5.83 at BTK; 6.15 at PRKAA1; 5.88 at INSR.
In the case of `Nc1ccn([C@@H]2O[C@H](CO)[C@@H](O)C2(F)F)c(=O)n1` [GEM, Gemcitabine], the EC50 is 3.76 nM with PDO UME053 (Homo sapiens, PDO UME053, GEM + Elimusertib (ATRi) dose1, mean of replicates, read-out: EC50 mean); 4.76 nM in the experiment on PDO UME053 (Homo sapiens, PDO UME053, GEM + Elimusertib (ATRi) dose1, per replicate, read-out: EC50); 4.79 nM in the experiment on PDO UME053 (Homo sapiens, PDO UME053, GEM + Elimusertib (ATRi) dose1, per replicate, read-out: pEC50 (converted)); 2.48 nM in the experiment with PDO UME053 (Homo sapiens, PDO UME053, GEM + Elimusertib (ATRi) dose2, mean of replicates, read-out: EC50 mean); 2.58 nM with PDO UME053 (Homo sapiens, PDO UME053, GEM + Elimusertib (ATRi) dose3, mean of replicates, read-out: EC50 mean); 3.83 nM with PDO UME053 (Homo sapiens, PDO UME053, GEM alone, mean of replicates, read-out: EC50 mean). Further, the EC50 was 4.9 nM in the experiment on PDO UME053 (Homo sapiens, PDO UME053, GEM alone, per replicate, read-out: EC50); 4.9 nM in the experiment on PDO UME053 (Homo sapiens, PDO UME053, GEM alone, per replicate, read-out: pEC50 (converted)); 3.8 nM with PDO UME053 (Homo sapiens, PDO UME053, GEM alone, read-out: EC50 mean); 3.83 nM with PDO UME053 (Homo sapiens, PDO UME053, experiment GEM (GEM alone), mean of replicates, read-out: EC50 mean); 5.75 nM in the experiment on PDO UME053 (Homo sapiens, PDO UME053, experiment GEM (GEM alone), single replicates, read-out: pEC50 (converted)); 5.76 nM with PDO UME053 (Homo sapiens, SET-2, PDO UME053, PDO set 2, experiment GEM (GEM alone), single replicates, read-out: EC50). Also, the EC50 was 3.51 nM and 3.42 nM and 4.59 nM and 3.68 nM and 3.05 nM with PDO UME053 (PDO UME053, GEM + Elimusertib (ATRi) dose1, per replicate, read-out: EC50); 3.13 nM and 3.73 nM and 2.51 nM and 1.19 nM and 1.27 nM in the experiment with PDO UME053 (PDO UME053, GEM + Elimusertib (ATRi) dose2, per replicate, read-out: EC50); 2.72 nM and 2.86 nM and 2.18 nM and 1.18 nM and 1.85 nM in the experiment with PDO UME053 (PDO UME053, GEM + Elimusertib (ATRi) dose3, per replicate, read-out: EC50); 3.43 nM and 2.87 nM and 2.77 nM and 4.39 nM and 2.68 nM in the experiment on PDO UME053 (PDO UME053, GEM alone, per replicate, read-out: EC50); 3.82 nM in the experiment with PDO UME053 (PDO UME053, PDO set 2, experiment GEM (GEM alone), single replicates, read-out: EC50). Besides, the Curve bottom is 4.76 and 3.51 and 3.42 and 4.59 and 3.68 and 3.05 in the experiment with PDO UME053 (setting [1]); 3.13 and 3.73 and 2.51 and 1.19 and 1.27 in the experiment with PDO UME053 (setting [2]); 2.72 and 2.86 and 2.18 and 1.18 and 1.85 in the experiment with PDO UME053 (setting [3]); 4.90 and 3.43 and 2.87 and 2.77 and 4.39 and 2.68 in the experiment with PDO UME053 (setting [4]); 5.76 and 3.82 in the experiment with PDO UME053 (setting [5]). Further, the Curve slope in the experiment with PDO UME053 (setting [1]) is -0.0232 and -0.0231 and -0.0214 and -0.0351 and 0.00541 and -0.00734; with PDO UME053 (setting [2]), -0.0242 and -0.026 and -0.0173 and -0.00205 and -0.00262; in the experiment on PDO UME053 (setting [3]), -0.02 and -0.027 and -0.013 and -0.0115; with PDO UME053 (setting [4]), -0.0183 and 6.71e-5 and 0.00446 and -0.00144 and 0.00242 and 0.00525. The Curve top with PDO UME053 (setting [1]) is 1.03 and 0.94; in the experiment with PDO UME053 (setting [2]), 1.01 and 0.93 and 0.97 and 0.99; with PDO UME053 (setting [3]), 0.85 and 0.95 and 0.90; with PDO UME053 (setting [4]), 1.30 and 1.34; with PDO UME053 (setting [5]), 0.62. Also, the pEC50 (commonly the EC50 on a negative log10 scale, so that one unit is a factor of ten) in the experiment on PDO UME053 (setting [1]) is 8.45 and 8.47 and 8.34 and 8.43 and 8.52; in the experiment on PDO UME053 (setting [2]), 8.50 and 8.43 and 8.60 and 8.92 and 8.90; in the experiment on PDO UME053 (setting [3]) it was 8.56 and 8.54 and 8.66 and 8.93 and 8.73; in the experiment on PDO UME053 (setting [4]), 8.46 and 8.54 and 8.56 and 8.36 and 8.57; in the experiment with PDO UME053 (PDO UME053, experiment GEM (GEM alone), single replicates) it was 8.42.
As for `C[C@]12O[C@H](C[C@]1(O)CO)n1c3ccccc3c3c4c(c5c6ccccc6n2c5c31)CNC4=O` [Lestaurtinib], the EC50 with MAP4K5 is […]; with IKBKE, 1030 nM; in the experiment on STK3 it was 39.2 nM.
